PubChem BioAssay AID2060900 (Molecular Pharmacology Branch, DTP, NCI, 2025)
pIC50: −log10 of the molar value.

System: 521955-158-R2-J5-PDC complex spheroids, viability
Experiment: Anticancer human tumor 521955-158-R2-J5-PDC patient-derived pancreatic carcinoma cell line growth inhibition [RAS]
Conditions: for pIC50: curve of first compound; for viability, T/C: stronger effect = lower value
In short: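 Agents were tested in combination matrices in half-log decrements from a top concentration at or near clinical Cmax (10 microM if undetermined). Targets were multi-cell spheroids of tumour lines plus HUVEC and MSC stromal cells.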

[1] = second compound 0.000949 µM, first compound 0.0316 µM
[2] = second compound 0.000949 µM, first compound 0.1 µM
[3] = second compound 0.000949 µM, first compound 0.316 µM
[4] = second compound 0.000949 µM, first compound 1 µM
[5] = second compound 0.000949 µM, first compound 3.16 µM
[6] = second compound 0.000949 µM, first compound 10 µM
[7] = second compound 0.003 µM, first compound 0.0316 µM
[8] = second compound 0.003 µM, first compound 0.1 µM
[9] = second compound 0.003 µM, first compound 0.316 µM
[10] = second compound 0.003 µM, first compound 1 µM
[11] = second compound 0.003 µM, first compound 3.16 µM
[12] = second compound 0.003 µM, first compound 10 µM
[13] = second compound 0.00949 µM, first compound 0.0316 µM
[14] = second compound 0.00949 µM, first compound 0.1 µM
[15] = second compound 0.00949 µM, first compound 0.316 µM
[16] = second compound 0.00949 µM, first compound 1 µM
[17] = second compound 0.00949 µM, first compound 3.16 µM
[18] = second compound 0.00949 µM, first compound 10 µM
[19] = second compound 0.03 µM, first compound 0.0316 µM
[20] = second compound 0.03 µM, first compound 0.1 µM
[21] = second compound 0.03 µM, first compound 0.316 µM
[22] = second compound 0.03 µM, first compound 1 µM
[23] = second compound 0.03 µM, first compound 3.16 µM
[24] = second compound 0.03 µM, first compound 10 µM
[25] = second compound 0.0949 µM, first compound 0.0316 µM
[26] = second compound 0.0949 µM, first compound 0.1 µM
[27] = second compound 0.0949 µM, first compound 0.316 µM
[28] = second compound 0.0949 µM, first compound 1 µM
[29] = second compound 0.0949 µM, first compound 3.16 µM
[30] = second compound 0.0949 µM, first compound 10 µM
[31] = second compound 0.3 µM, first compound 0.0316 µM
[32] = second compound 0.3 µM, first compound 0.1 µM
[33] = second compound 0.3 µM, first compound 0.316 µM
[34] = second compound 0.3 µM, first compound 1 µM
[35] = second compound 0.3 µM, first compound 3.16 µM
[36] = second compound 0.3 µM, first compound 10 µM
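Also: compound exposure lasted seven days before the viability read.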
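For viability, T/C in this document: spheroids also contain HUVEC endothelial cells and mesenchymal stem cells as stroma.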

`CC(=O)OC12COC1CC(O)C1(C)C(=O)C(O)C3=C(C)C(OC(=O)C(O)C(NC(=O)OC(C)(C)C)c4ccccc4)CC(O)(C(OC(=O)c4ccccc4)C21)C3(C)C` (stereo unspecified) + CCn1c(-c2cccnc2C(C)OC)c2c3cc(ccc31)N1CCOC(CC(NC(=O)C(C(C)C)N(C)C(=O)C3(F)CCN(C(=O)C#CC(C)(C)N(C)C)CC3)C(=O)N3CCCC(N3)C(=O)OCC(C)(C)C2)C1 showed a pIC50 (second compound 0.000949 µM) greater than 7.50, a pIC50 (second compound 0.003 µM) greater than 7.50 and a pIC50 (second compound 0.00949 µM) greater than 7.50. The pIC50 (second compound 0.03 µM) was greater than 7.50, the pIC50 (second compound 0.0949 µM) was greater than 7.50 and the pIC50 (second compound 0.3 µM) was greater than 7.50. It also gave a viability, T/C [1] of 47.5%, a viability, T/C [2] of 23% and a viability, T/C [3] of 24.6%. The viability, T/C [4] was 22%, the viability, T/C [5] was 28% and the viability, T/C [6] was 40.4%. It also gave a viability, T/C [7] of 31.7%, a viability, T/C [8] of 25.1% and a viability, T/C [9] of 27.6%. It also gave a viability, T/C [10] of 23.8%, a viability, T/C [11] of 28.9% and a viability, T/C [12] of 42.2%. For the same compound, the viability, T/C [13] was 33.5%, the viability, T/C [14] was 24.6% and the viability, T/C [15] was 23.6%. For the same compound, the viability, T/C [16] was 25.8%, the viability, T/C [17] was 40% and the viability, T/C [18] was 38.1%. It also gave a viability, T/C [19] of 35.7%, a viability, T/C [20] of 20.3% and a viability, T/C [21] of 22.8%. For the same compound, the viability, T/C [22] was 22.9%, the viability, T/C [23] was 32.3% and the viability, T/C [24] was 41.6%. The viability, T/C [25] was 39.1%, the viability, T/C [26] was 26.8% and the viability, T/C [27] was 19.3%. It also gave a viability, T/C [28] of 25.5%, a viability, T/C [29] of 38.2% and a viability, T/C [30] of 41.1%. The viability, T/C [31] was 32.7%, the viability, T/C [32] was 22.7% and the viability, T/C [33] was 23.4%. It also gave a viability, T/C [34] of 32.3%, a viability, T/C [35] of 41.9% and a viability, T/C [36] of 39.9%.

In the case of `NC1c2ccccc2OC12CCN(c1cnc3c(N4CCCc5ncccc54)n[nH]c3n1)CC2` (stereo unspecified) + CCn1c(-c2cccnc2C(C)OC)c2c3cc(ccc31)N1CCOC(CC(NC(=O)C(C(C)C)N(C)C(=O)C3(F)CCN(C(=O)C#CC(C)(C)N(C)C)CC3)C(=O)N3CCCC(N3)C(=O)OCC(C)(C)C2)C1, the pIC50 (second compound 0.000949 µM) was 5.35, the pIC50 (second compound 0.003 µM) was less than 5.00 and the pIC50 (second compound 0.00949 µM) was 6.01. For the same compound, the pIC50 (second compound 0.03 µM) was less than 5.00, the pIC50 (second compound 0.0949 µM) was 5.92 and the pIC50 (second compound 0.3 µM) was 6.89. The viability, T/C [1] was 62.7%, the viability, T/C [2] was 61.4% and the viability, T/C [3] was 53.5%. For the same compound, the viability, T/C [4] was 52.3%, the viability, T/C [5] was 50.2% and the viability, T/C [6] was 50%. The viability, T/C [7] was 64%, the viability, T/C [8] was 51% and the viability, T/C [9] was 58.8%. The viability, T/C [10] was 55.4%, the viability, T/C [11] was 52.7% and the viability, T/C [12] was 49.8%. The viability, T/C [13] was 53.7%, the viability, T/C [14] was 48.1% and the viability, T/C [15] was 51.8%. The viability, T/C [16] was 52.5%, the viability, T/C [17] was 53.2% and the viability, T/C [18] was 43.6%. The viability, T/C [19] was 60.3%, the viability, T/C [20] was 56.8% and the viability, T/C [21] was 44.2%. It also gave a viability, T/C [22] of 51.3%, a viability, T/C [23] of 58.9% and a viability, T/C [24] of 47.1%. It also gave a viability, T/C [25] of 52.9%, a viability, T/C [26] of 54.4% and a viability, T/C [27] of 43.3%. For the same compound, the viability, T/C [28] was 49.7%, the viability, T/C [29] was 56.5% and the viability, T/C [30] was 45.7%. It also gave a viability, T/C [31] of 51.3%, a viability, T/C [32] of 46.3% and a viability, T/C [33] of 51.9%. It also gave a viability, T/C [34] of 51.3%, a viability, T/C [35] of 49.5% and a viability, T/C [36] of 42.9%.

With `Nc1ccn(C2OC(CO)C(O)C2(F)F)c(=O)n1` (stereo unspecified) + CCn1c(-c2cccnc2C(C)OC)c2c3cc(ccc31)N1CCOC(CC(NC(=O)C(C(C)C)N(C)C(=O)C3(F)CCN(C(=O)C#CC(C)(C)N(C)C)CC3)C(=O)N3CCCC(N3)C(=O)OCC(C)(C)C2)C1 the pIC50 (second compound 0.000949 µM) was 6.81, the pIC50 (second compound 0.003 µM) was 6.69 and the pIC50 (second compound 0.00949 µM) was 6.60. For the same compound, the pIC50 (second compound 0.03 µM) was 6.55, the pIC50 (second compound 0.0949 µM) was 6.72 and the pIC50 (second compound 0.3 µM) was 6.96. It also gave a viability, T/C (second compound 0.000949 µM, first compound 0.00316 µM) of 112%, a viability, T/C (second compound 0.000949 µM, first compound 0.01 µM) of 80.2% and a viability, T/C [1] of 75.4%. The viability, T/C [2] was 56.8%, the viability, T/C [3] was 51.6% and the viability, T/C [4] was 14.4%. For the same compound, the viability, T/C (second compound 0.003 µM, first compound 0.00316 µM) was 97.8%, the viability, T/C (second compound 0.003 µM, first compound 0.01 µM) was 90.3% and the viability, T/C [7] was 79.3%. The viability, T/C [8] was 67.1%, the viability, T/C [9] was 39.6% and the viability, T/C [10] was 11.8%. For the same compound, the viability, T/C (second compound 0.00949 µM, first compound 0.00316 µM) was 85.3%, the viability, T/C (second compound 0.00949 µM, first compound 0.01 µM) was 91% and the viability, T/C [13] was 75.9%. The viability, T/C [14] was 79.8%, the viability, T/C [15] was 42.6% and the viability, T/C [16] was 15.6%. For the same compound, the viability, T/C (second compound 0.03 µM, first compound 0.00316 µM) was 95.5%, the viability, T/C (second compound 0.03 µM, first compound 0.01 µM) was 78.9% and the viability, T/C [19] was 69%. For the same compound, the viability, T/C [20] was 69.4%, the viability, T/C [21] was 53.4% and the viability, T/C [22] was 10.1%. For the same compound, the viability, T/C (second compound 0.0949 µM, first compound 0.00316 µM) was 79.5%, the viability, T/C (second compound 0.0949 µM, first compound 0.01 µM) was 77.9% and the viability, T/C [25] was 62.5%. It also gave a viability, T/C [26] of 65.2%, a viability, T/C [27] of 41.2% and a viability, T/C [28] of 11.2%. For the same compound, the viability, T/C (second compound 0.3 µM, first compound 0.00316 µM) was 72.2%, the viability, T/C (second compound 0.3 µM, first compound 0.01 µM) was 66.9% and the viability, T/C [31] was 59.6%. The viability, T/C [32] was 51.8%, the viability, T/C [33] was 36.5% and the viability, T/C [34] was 12.6%.
